In patent US11207432B2, “Substituted organofluoroborates as imaging agents” (THE UNIVERSITY OF BRITISH COLUMBIA, priority 2013, dated 2021):

What was measured:
[1] = Solvolytic defluoridation of fluoridated organotrifluoroborates by 19F-NMR; type: physicochemical; conditions: 200 mM phosphate buffer pH 7.5, 19F NMR; for k(solvolysis): pseudo-first-order fit; for half-life: solvolytic defluoridation, read-out: half-life, t1/2
Procedure: The following is are representative examples of testing of solvolytic defluoridation of fluoridated organoborates as shown in FIG. 1A to FIG. 1FF and Table 1. Solutions of the fluoridated organotrifluoroborates were made by dissolving 30 mg of the fluoridated organotrifluoroborate into 1 mL of 20% ethanol/acetonitrile.
As the fluoridated organotrifluoroborate salts were often contaminated with a significant amount of free fluoride, a silica column was used to remove the free fluoride from the organotrifluoroborate solution. After loading the crude reaction onto the silica column, the fractions containing the desired organotrifluoroborate were eluted and combined to form a combined solution. In view of the strong stability of the fluoridated organotrifluoroborate in organic solvent, 20% of the combined solution was stored in an NMR tube and this sample served as the “zero” minute time point. A purified organotrifluoroborate salt was isolated from the remaining portion of the combined solution (remaining 80% of the combined solution) by removing the organic solvent from the combined solution by vacuum. Removal of the organic solvent from the combined solution gave the purified fluoridated alkylbornate salt in the form of a white solid. The dry and purified fluoridated organotrifluoroborate salt was re-dissolved into 3 mL of 200 mM phosphate buffer. Solvolytic defluoridation started immediately upon dissolution of the fluoridated organotrifluoroborate salt into phosphate buffer, and accordingly, the time was recorded at the moment of dissolution. The progress of solvolytic defluoridation of the fluoridated organotrifluoroborate salt was monitored using ^19F NMR spectroscopy. General principles, methods and background relating to the use of ^19F NMR spectroscopy for monitoring defluoridation are known, and may be found in, for example, Ting et al. (2008, J. Org. Chem. 73; 4662-70; Harwig et al. (2008) Tetrahedron Letters 49:3152-56; and Ting et al. (2008) Journal of Fluorine Chemistry 129:349-58. For each time point, solvolytic defluoridation data was collected using a 300 MHz ^19F NMR spectrometer (Bruker). ^19F NMR spectroscopic tracers for the fluoridated organotrifluoroborate salt at different times are shown in FIG. 1A. Use of ^19F-NMR to measure solvolytic defluoridation provides a useful model for measuring solvolytic 18F-defluoridation because if one F is lost, all are lost. Moreover, it is understood that the kinetic isotope effect in terms of B—F bond solvolysis is negligible. […] The degree of solvolytic defluoridation of the fluoridated organotrifluoroborate salt was plotted as a function of time, for example, as shown in FIG. 1B for Compound 6 of Table 1. ^19F NMR spectroscopic tracers for the fluoridated organotrifluoroborate salts of compounds listed in Table 1 at different times are shown in FIGS. 1A, 1C, 1E, 1G, 1I, 1K, 1M, 1O, 1Q, 1S, 1U, 1W, 1Y, 1AA, 1CC, and 1EE, and the degree of solvolytic defluoridation of the compounds as a function of time is shown in FIGS. 1B, 1D, 1F, 1H, 1J, 1L, 1N, 1P, 1R, 1T, 1V, 1X, 1ZZ, 1BB, 1DD, and 1FF.
The time curves shown in FIGS. 1B and 1D were fitted and a rate constant, ksolvolysis, for each time curve was calculated. As a measure of the stability of the fluoridated organoborate to solvolytic defluoridation, pkB—F values were calculated using the equation pkB—F=−log(ksolvolysis). In addition to pkB—F values, observed solvolytic defluoridation half-life, t1/2, values and rate constants, ksolvolysis, for a number of different fluoridated organoborates are listed in Table 1.

[2] = pKa of the carboxylic acid carrying the same moiety as the RBF3 compound; cited from earlier work
[3] = Stability of 18F-radiolabeled organotrifluoroborate in plasma by HPLC; type: in vitro ADME; conditions: 18F-labelled, 37° C., 150 mins, in vitro test n=3
Procedure: 1.1 mCi of ^18F-Compound 10 (^18F-ammoniomethyltrifluoroborate) was mixed with 100 μL of plasma to form a ^18F-Compound 10-plasma mixture, and then incubated at 37° C. for two hours. 200 uL of acetonitrile (ACN) was then added to the ^18F-Compound 10-plasma mixture to precipitate the protein from the mixture. The precipated protein portion was separated from the mixture by filtration with 40 μm filter paper, and the clear filtrate was injected into an HPLC for stability analysis. Chromatograms for independent HPLC tests of Rhodamine-Compound 10 of Table 1 at 0 minutes (A), 80 minutes (B), 150 minutes (C), 0 minutes (D), 150 minutes (E), and 150 minutes (F) are shown in FIG. 4A through FIG. 4F.

[4] = Stability of Rhodamine-BF3 conjugates in plasma by TLC; type: in vitro ADME, mice; conditions: tested as Rhodamine B conjugate, 37° C., 2 hours, fluorescence analysis
Procedure: The symbols A, B, C represent Rhodamine-ArBF3, Rhodamine-PyrBF3, and […] of Table 1, respectively. The subscript numbers 1, 2, 3 represent different test conditions: Plasma 1, Plasma 2 and PBS buffer (Plasma 1 and Plasma 2 were acquired from different mice).
The following is a representative example of testing of solvolytic defluoridation of a fluoridated organotrifluoroborate as shown in FIG. 3. 2 nmol Rhodamine-BF3 was added into 100 μL plasma, and then incubated at 37° C. After 2 hours, 200 μL acetonitrile (ACN) was added to precipitate the protein from the solution. The crude was filtered with 40 μm filter paper, and then a reddish purple solution was achieved. 1 μL of this solution was loaded on the TLC plate. The TLC plate was developed by 15% methanol/DCM. The TLC chromatograms for an aryltrifluoroborate (Rhodamine-ArBF3), Rhodamine-PyrBF3, and a quaternary ammoniomethyltrifluoroborate (Rhodamine-Compound 10 of Table 1) are shown as FIG. 3.
In the TLC chromatograms, Rhodamine B was conjugated with the trifluoroborate to trace the decomposition. The hydrolyzed product lost the negative charge, and therefore migrated much more rapidly than the precursor.

SMILES	half-life [1] [h]	decomposition in plasma by HPLC [3]	pk (solvolysis) = −log k(solvolysis) [1]	k(solvolysis) [1]	pKa of Corresponding COOH [2]	decomposition (hydrolyzed product) on TLC after incubation in plasma [4]
C=C[B-](F)(F)F [Compound 2, vinyltrifluoroborate]	0.117	–	1.01	0.099 min − 1	4.25	–
C#CC[N+](C)(C[B-](F)(F)F)C[B-](F)(F)F [Compound 18]	47	–	3.61	0.000246 min − 1	–	–
O=C(c1ccccc1)[B-](F)(F)F [Compound 8, benzoytrifluoroborate]	–	–	4.0700	–	2.35	–
CC[NH+](CC)C[B-](F)(F)F [Compound 6]	65.5	–	3.7554	0.000175 min − 1	2.34	–
F[B-](F)(F)CBr [Compound 4, bromomethyltrifluoroborate]	11	–	2.98	0.000768 min − 1	2.86	–
C[N+](C)(CC(=O)O)C[B-](F)(F)F [Compound 17]	5.77	–	2.70	0.0020 min − 1	–	–
F[B-](F)(F)C[n+]1ccccc1 [Compound 14]	178	–	4.19	6.45 × 10^−5 min − 1	2.14	–
C[n+]1ccn(C[B-](F)(F)F)c1 [Compound 15]	4.43	–	2.59	0.00259 min − 1	–	–
O=C(CCCCO)[B-](F)(F)F [Compound 5]	38.5	–	3.5249	0.000298 min − 1	2.5	–

Now from value to compound, other results behind:

half-life [1] [h]	decomposition in plasma by HPLC [3]	SMILES	pk (solvolysis) = −log k(solvolysis) [1]	k(solvolysis) [1]	pKa of Corresponding COOH [2]	decomposition (hydrolyzed product) on TLC after incubation in plasma [4]
7670	–	C[S+](C[B-](F)(F)F)c1ccccc1 (stereo not shown) [Compound 12]	5.82	1.5 × 10^−5 min − 1	–	–
2.42	–	F[B-](F)(F)COCc1ccccc1 [Compound 3]	2.32	0.00476 min − 1	3.53	–
2500	–	F[B-](F)(F)C(Cl)Cl [Compound 11]	5.3372	4.6 × 10^−5 min − 1	1.29	–
367	almost no decomposition was observed	C#CC[N+](C)(C)C[B-](F)(F)F [Compound 10]	4.5036	3.14 × 10^−5 min − 1	1.83	almost no hydrolyzed product was detected
0.0383 to 0.05	–	CCCC[B-](F)(F)F [Compound 1, butyltrifluoroborate]	0.52	0.3 min − 1	4.81	–
172	–	COC(=O)C[N+](C)(C)C[B-](F)(F)F [Compound 16]	4.17	0.0000673 min − 1	–	–
